Assay results from the NIST ThermoML archive (doi:10.1016/j.fluid.2016.06.011).

Settings: Liquid; for vapor or sublimation pressure: Closed cell (Static) method; for mass density: 101.33 kPa, Vibrating tube method

OCC(F)(F)C(F)(F)C(F)(F)C(F)(F)C(F)(F)F [2,2,3,3,4,4,5,5,6,6,6-undecafluorohexan-1-ol]
Settings	mass density [kg/m3]	vapor or sublimation pressure [kPa]
278.14 K	–	0.0688
278.15 K	1746.4	–
279.15 K	1744.56	–
280.15 K	1742.69	–
281.15 K	1740.82	–
282.15 K	1738.95	–
283.1 K	–	0.1098
283.15 K	1737.07	–
284.15 K	1735.19	–
285.15 K	1733.3	–
286.15 K	1731.41	–
287.15 K	1729.52	–
288.08 K	–	0.1712
288.15 K	1727.62	–
289.15 K	1725.71	–
290.15 K	1723.81	–
291.15 K	1721.89	–
292.15 K	1719.98	–
293.08 K	–	0.2615
293.15 K	1718.06	–
294.15 K	1716.13	–
295.15 K	1714.2	–
296.15 K	1712.27	–
297.15 K	1710.32	–
298.13 K	–	0.3944
298.15 K	1708.38	–
299.15 K	1706.43	–
300.15 K	1704.47	–
301.15 K	1702.5	–
302.15 K	1700.54	–
303.1 K	–	0.5819
303.15 K	1698.57	–
304.15 K	1696.59	–
305.15 K	1694.61	–
306.15 K	1692.62	–
307.15 K	1690.62	–
308.06 K	–	0.8405
308.15 K	1688.62	–
309.15 K	1686.62	–
310.15 K	1684.61	–
311.15 K	1682.59	–
312.15 K	1680.57	–
313.01 K	–	1.205
313.15 K	1678.54	–
314.15 K	1676.51	–
315.15 K	1674.47	–
316.15 K	1672.43	–
317.15 K	1670.38	–
317.98 K	–	1.708
318.15 K	1668.32	–
319.15 K	1666.26	–
320.15 K	1664.19	–
321.15 K	1662.11	–
322.15 K	1660.03	–
322.93 K	–	2.349
323.15 K	1657.95	–
324.15 K	1655.85	–
325.15 K	1653.75	–
326.15 K	1651.65	–
327.15 K	1649.54	–
327.93 K	–	3.25
328.15 K	1647.42	–
329.15 K	1645.29	–
330.15 K	1643.16	–
331.15 K	1641.02	–
332.15 K	1638.87	–
333.15 K	1636.72	–
334.15 K	1634.57	–
335.15 K	1632.41	–
336.15 K	1630.23	–
337.15 K	1628.06	–
338.15 K	1625.88	–
339.15 K	1623.69	–
340.15 K	1621.49	–
341.15 K	1619.29	–
342.15 K	1617.08	–
343.15 K	1614.86	–
344.15 K	1612.64	–
345.15 K	1610.41	–
346.15 K	1608.17	–
347.15 K	1605.92	–
348.15 K	1603.67	–

OCC(F)(F)C(F)(F)C(F)(F)F [2,2,3,3,4,4,4-heptafluorobutanol]
Settings	mass density [kg/m3]	vapor or sublimation pressure [kPa]
278.14 K	–	0.7213
278.15 K	1633.59	–
279.15 K	1631.74	–
280.15 K	1629.87	–
281.15 K	1627.99	–
282.15 K	1626.11	–
283.1 K	–	1.047
283.15 K	1624.23	–
284.15 K	1622.34	–
285.15 K	1620.44	–
286.15 K	1618.54	–
287.15 K	1616.63	–
288.08 K	–	1.495
288.15 K	1614.73	–
289.15 K	1612.81	–
290.15 K	1610.89	–
291.15 K	1608.97	–
292.15 K	1607.04	–
293.08 K	–	2.117
293.15 K	1605.11	–
294.15 K	1603.16	–
295.15 K	1601.22	–
296.15 K	1599.26	–
297.15 K	1597.31	–
298.1 K	–	2.965
298.15 K	1595.34	–
299.15 K	1593.37	–
300.15 K	1591.39	–
301.15 K	1589.41	–
302.15 K	1587.41	–
303.07 K	–	4.086
303.15 K	1585.41	–
304.15 K	1583.41	–
305.15 K	1581.4	–
306.15 K	1579.38	–
307.15 K	1577.36	–
308.04 K	–	5.551
308.15 K	1575.32	–
309.14 K	1573.28	–
310.15 K	1571.23	–
311.15 K	1569.18	–
312.15 K	1567.12	–
313.03 K	–	7.473
313.14 K	1565.05	–
314.15 K	1562.97	–
315.15 K	1560.89	–
316.15 K	1558.79	–
317.15 K	1556.69	–
317.98 K	–	9.905
318.15 K	1554.58	–
319.14 K	1552.46	–
320.15 K	1550.34	–
321.15 K	1548.2	–
322.14 K	1546.06	–
322.95 K	–	13.14
323.14 K	1543.91	–
324.14 K	1541.75	–
325.15 K	1539.58	–
326.14 K	1537.4	–
327.14 K	1535.21	–
327.91 K	–	17.26
328.15 K	1533.02	–
329.15 K	1530.81	–
330.14 K	1528.6	–
331.14 K	1526.38	–
332.15 K	1524.14	–
333.14 K	1521.91	–
334.14 K	1519.66	–
335.14 K	1517.4	–
336.14 K	1515.13	–
337.14 K	1512.85	–
338.14 K	1510.57	–
339.14 K	1508.28	–
340.14 K	1505.97	–
341.14 K	1503.65	–
342.14 K	1501.33	–
343.14 K	1498.99	–
344.15 K	1496.65	–
345.15 K	1494.29	–
346.15 K	1491.93	–
347.15 K	1489.55	–
348.14 K	1487.16	–
349.14 K	1484.77	–
350.14 K	1482.37	–
351.14 K	1479.94	–
352.14 K	1477.52	–
353.14 K	1475.08	–

OCC(F)(F)C(F)(F)F [2,2,3,3,3-pentafluoropropanol]
Settings	mass density [kg/m3]	vapor or sublimation pressure [kPa]
278.16 K	1542.78	–
279.15 K	1540.99	–
280.15 K	1539.17	–
281.15 K	1537.35	–
282.15 K	1535.52	–
283.15 K	1533.69	–
284.15 K	1531.86	–
285.15 K	1530.02	–
286.15 K	1528.18	–
287.15 K	1526.33	–
288.15 K	1524.47	–
289.15 K	1522.62	–
290.15 K	1520.75	–
291.15 K	1518.88	–
292.15 K	1517	–
293.15 K	1515.12	–
294.15 K	1513.23	–
295.15 K	1511.35	–
296.15 K	1509.44	–
297.15 K	1507.54	–
298.08 K	–	6.205
298.15 K	1505.63	–
299.15 K	1503.71	–
300.15 K	1501.79	–
301.15 K	1499.86	–
302.15 K	1497.92	–
303.05 K	–	8.416
303.15 K	1495.97	–
304.15 K	1494.03	–
305.14 K	1492.07	–
306.15 K	1490.1	–
307.15 K	1488.13	–
308.04 K	–	11.31
308.15 K	1486.15	–
309.14 K	1484.16	–
310.14 K	1482.16	–
311.14 K	1480.16	–
312.14 K	1478.14	–
313.01 K	–	14.97
313.14 K	1476.12	–
314.15 K	1474.09	–
315.15 K	1472.06	–
316.14 K	1470.01	–
317.14 K	1467.95	–
317.98 K	–	19.59
318.15 K	1465.89	–
319.14 K	1463.82	–
320.14 K	1461.73	–
321.15 K	1459.64	–
322.14 K	1457.55	–
322.96 K	–	25.41
323.14 K	1455.43	–
324.14 K	1453.31	–
325.14 K	1451.18	–
326.14 K	1449.05	–
327.14 K	1446.89	–
327.93 K	–	32.49
328.15 K	1444.74	–
329.15 K	1442.57	–
330.14 K	1440.39	–
331.14 K	1438.2	–
332.14 K	1436	–
333.14 K	1433.79	–
334.14 K	1431.57	–
335.14 K	1429.34	–
336.14 K	1427.1	–
337.14 K	1424.84	–
338.14 K	1422.58	–
339.14 K	1420.31	–
340.14 K	1418.03	–
341.14 K	1415.72	–
342.14 K	1413.42	–
343.15 K	1411.1	–
344.15 K	1408.78	–
345.15 K	1406.43	–
346.15 K	1404.08	–
347.15 K	1401.72	–
348.15 K	1399.34	–
349.14 K	1396.95	–
350.14 K	1394.55	–
351.14 K	1392.14	–
352.14 K	1389.72	–
353.14 K	1387.29	–

OCC(F)(F)C(F)(F)C(F)(F)C(F)(F)F [2,2,3,3,4,4,5,5,5-nonafluoropentan-1-ol]
Settings	mass density [kg/m3]	vapor or sublimation pressure [kPa]
278.14 K	–	0.2236
278.15 K	1689.58	–
279.15 K	1687.71	–
280.15 K	1685.83	–
281.15 K	1683.95	–
282.15 K	1682.07	–
283.1 K	–	0.3363
283.15 K	1680.18	–
284.15 K	1678.29	–
285.15 K	1676.39	–
286.15 K	1674.48	–
287.15 K	1672.58	–
288.07 K	–	0.502
288.15 K	1670.67	–
289.15 K	1668.76	–
290.15 K	1666.84	–
291.15 K	1664.91	–
292.15 K	1662.98	–
293.06 K	–	0.7329
293.15 K	1661.05	–
294.15 K	1659.11	–
295.15 K	1657.16	–
296.15 K	1655.22	–
297.15 K	1653.26	–
298.09 K	–	1.07
298.15 K	1651.3	–
299.15 K	1649.34	–
300.15 K	1647.37	–
301.15 K	1645.39	–
302.15 K	1643.41	–
303.1 K	–	1.531
303.15 K	1641.42	–
304.15 K	1639.43	–
305.15 K	1637.43	–
306.15 K	1635.43	–
307.15 K	1633.42	–
308.06 K	–	2.152
308.15 K	1631.4	–
309.15 K	1629.38	–
310.15 K	1627.35	–
311.15 K	1625.32	–
312.15 K	1623.28	–
313.02 K	–	2.979
313.15 K	1621.23	–
314.15 K	1619.17	–
315.15 K	1617.12	–
316.15 K	1615.05	–
317.15 K	1612.98	–
317.98 K	–	4.071
318.15 K	1610.9	–
319.15 K	1608.81	–
320.15 K	1606.72	–
321.15 K	1604.62	–
322.15 K	1602.52	–
322.99 K	–	5.496
323.15 K	1600.4	–
324.15 K	1598.29	–
325.15 K	1596.16	–
326.15 K	1594.03	–
327.15 K	1591.88	–
327.95 K	–	7.315
328.15 K	1589.74	–
329.15 K	1587.59	–
330.15 K	1585.42	–
331.15 K	1583.26	–
332.15 K	1581.08	–
333.15 K	1578.9	–
334.15 K	1576.7	–
335.15 K	1574.51	–
336.15 K	1572.3	–
337.15 K	1570.09	–
338.15 K	1567.87	–
339.15 K	1565.64	–
340.15 K	1563.41	–
341.15 K	1561.17	–
342.15 K	1558.91	–
343.15 K	1556.65	–
344.15 K	1554.39	–
345.15 K	1552.11	–
346.14 K	1549.83	–
347.15 K	1547.45	–
348.15 K	1545.15	–
349.15 K	1542.85	–
350.15 K	1540.53	–
351.15 K	1538.2	–
352.15 K	1535.87	–
353.15 K	1533.52	–
